One molecule from US7687079B2, “Methods of treating ileus” (priority 2002, dated 2010) can be followed below.

SMILES strings stand for the structures. Entries after “also recorded” stand apart in the source; their conditions may differ.

In experiment [1] the test system is serum IL-6. Put plainly: serum IL-6 ELISA after SITx. The class given is in vivo, rat. The method, then:
Serum samples were taken sequentially at 1, 4 and 24 hours after reperfusion and stored at −80° C. until evaluation. Serum cytokine concentrations, including IL-6, IL-10 and TNFα, were determined using rat enzyme-linked immunoassay (ELISA) kits as described by the manufacturer (R & D, Cambridge, Mass.).
(§1) FIG. 6 is a set of bar graphs that illustrate the effect of CO on serum IL-6 and nitrate/nitrite concentrations in animals receiving intestinal grafts at one and four hours after reperfusion. […] Serum IL-6 concentrations were determined using a rat enzyme-linked immunoassay (ELISA) kit (R&D, Cambridge, Mass.). The serum nitrite/nitrate levels, the stable end products of NO metabolism, were measured using a commercially available test kit (Cayman, Ann Arbor, Mich.). In this assay system, nitrate is reduced to nitrite using nitrate reductase, and nitrite concentration of the sample was subsequently measured using the Griess reaction. Serum IL-6 and nitrite/nitrate levels in animals subjected SITx and treated with air increased over time.

Experiment [2] has as its system total nitrite (NO production). Put plainly: total nitrite release from muscularis extracts (index of iNOS activity). The class given is in vivo, mouse. As to conditions: IM + CO vs IM, 24 hours after surgery. The method, then: (§2) Protein and Nitric Oxide Determinations. The small bowel of control and mice subjected to intestinal manipulation was removed under sterile conditions, 4 or 24 hours post-operatively, leaving the colon in situ. The small intestine was transferred to a beaker containing chilled Hanks balanced salt solution (Sigma, St. Louis, Mo.) with 200 U/ml penicillin G and 200 μg/ml streptomycin (HBSS), the lumen flushed, and the tissue transferred to a second beaker of HBSS. The muscularis was harvested as described above for real time RT-PCR. Tissues were maintained under sterile conditions at 3 to 5° C. throughout the harvesting procedure. Isolated muscularis was blotted onto sterile gauze, and the wet weight determined to obtain aliquots of 40 to 60 mg. […]
(§3) After the incubation period, the muscle tissue was pelleted, and aliquots of culture medium were frozen in liquid nitrogen and stored at −80° C. The levels of IL-6, IL-1β, PGE2, and IL-10 proteins secreted into the culture medium were determined using commercially available ELISA kits (R&D Systems, Minneapolis, Minn.) according to the manufacturer's instructions. […] Nitrate/nitrate levels were measured 24 hrs postoperatively using commercially available test kit (Oxford Biomedical Research, Oxford, Mich.) and quantified according to the manufacturer's directions. […]

For experiment [3], the system named is iNOS mRNA. Briefly: iNOS mRNA expression in muscularis of transplanted grafts (real time RT-PCR). The class given is in vivo, rat. As to conditions: CO-treated SITx rats, 4 hours after reperfusion; p=0.060. How it is done:
(§4) The effects of inhalation of CO on transplant-induced pro-inflammatory and anti-inflammatory gene expression was assessed in muscularis extracts by RT-PCR. Muscularis extemae was collected from normal intestine and transplanted grafts 4 hours postoperatively and snap frozen in liquid nitrogen. This time point falls within the range of maximum inflammatory mediator expression that occurs between 3 and 6 hours following abdominal incision. Total RNA extraction was performed using the guanidium-thiocyanate phenol-chloroform extraction method as described previously (Eskandari et al., Am. J. Clin. Pathol. 75(3):367-370 (1997)). RNA pellets were resuspended in RNA-secure resuspension solution (Ambion Inc., Austin, Tex.), followed by removal of potentially contaminating DNA by treatment with DNase I (DNA-Free Kit, Ambion Inc., Austin, Tex.). Equal aliquots (5 μg) of total RNA from each sample were quantified by spectrophotometry (wavelength […]) and aliquoted at a concentration of 40 ng/μl. Peak mRNA expression was quantified in duplicate by SYBR Green two-step, real-time RT-PCR. […] Real-time PCR data were plotted as the ΔRn, fluorescence signal versus the cycle number. […] Quantification of mRNA expression was normalized to GAPDH and calculated relative to control using the comparative CT method (Schmittgen et al., J. Biochem. Biophys. Methods 46(1-2):69-8 (2000)). […]

Experiment [4] has as its system IL-6 protein. Briefly: IL-6 protein release from isolated muscularis (ELISA). The class given is in vivo, mouse. The method, then:
as §2, §3

For experiment [5], the system named is ICAM-1 mRNA. Briefly: ICAM-1 mRNA expression in muscularis externae of intestinal grafts (real time RT-PCR). The class given is in vivo, rat. To be noted: SITx recipients treated with CO, 4 hours after reperfusion. How it is done:
as §4

In experiment [6] the test system is serum nitrite/nitrate. Briefly: serum nitrite/nitrate levels after SITx (Griess reaction). The class given is in vivo, rat. To be noted: SITx + CO vs SITx with air. The method, then:
To monitor the stable end-products of NO metabolism, serum […] levels at 1, 4, and 24 hrs were measured using a commercially available test kit (Cayman, Ann Arbor, Mich.) and quantified according to the manufacturer's directions. In this assay system, nitrate is reduced to nitrite using nitrate reductase, and the nitrite concentration of the sample is subsequently measured using the Griess reaction.
as §1

As for `[C-]#[O+]` [CO, carbon monoxide], in experiment [1] (SITx + CO vs SITx with air), the “serum IL-6 level” value is listed as “significantly decreased; also recorded: significantly lower”. Further, the “Serum IL-6” value in experiment [1] (SITx + CO, 4 hours after reperfusion, Table 2) stood at 1439 pg/mL. In experiment [2], the “surgically induced increase in nitrite release” value was “significantly inhibited”. Further, the “reduction of mean relative iNOS mRNA expression” value in experiment [3] is “approximately 50%”. Besides, the IL-6 protein release entry was “significantly attenuated” in experiment [4] (IM + CO vs IM, 24 hr after surgery) and 2000 pg/mL in experiment [4] (IM mice treated with CO, 24 hr postoperatively). Also, the ICAM-1 expression entry in experiment [5] was “unchanged”. The serum nitrite/nitrate level entry in experiment [6] is “significantly decreased”.
